# In patent US12171868B2 (Neurelis, Inc., priority 2022, dated 2024):
# Read-outs that look alike come from different tables or passages of the source.
# Settings: saturated
smiles,measurement,setting,value
"Cc1cc2c(s1)Nc1ccccc1N=C2N1CCN(C)CC1 [Olanzapine, 2-methyl-4-(4-methyl-1-piperazinyl)-10H-thieno[2,3-b] [1,5]benzodiazepine]",Appearance,20% Dimethylacetamide/80% PEG 200,Clear amber solution
same,Appearance,40% Dimethylacetamide/60% PEG 200,Clear amber solution
same,Appearance,60% Dimethylacetamide/40% PEG 200,Clear dark amber solution
same,Appearance,80% Dimethylacetamide/20% PEG 200,Clear dark amber solution
same,Appearance,100% PEG 200,Clear amber solution
